Data: EP4608400B1, “COMPOUND FOR TREATMENT OF PAIN” (Initiator Pharma A/S, priority 2022, dated 2024)

System: CCI rats
Assay: Rat chronic constriction injury (CCI) model of neuropathic pain
Format: in vivo, Sprague-Dawley rats
Details: for paw withdrawal duration (pin prick) / weight bearing difference / paw withdrawal threshold (von Frey stimulation): 60 min prior; for paw withdrawal duration (pin prick): vehicle about 14.9 s; for weight bearing difference: vehicle about 51 %; for paw withdrawal threshold (von Frey stimulation): vehicle around 1.1 g
Experimental: All treatments were administered s.c. in a dosing volume of 2 ml/kg 60 min prior to behavioural assessment.
Adult male Sprague-Dawley rats (Harlan Scandinavia, Alleroed, Denmark) were used. They were housed in Macrolon III cages (20 x 14 x 18 cm or 20 x 40 x18 cm; in groups of 2-5 per cage according to weight) containing wood-chip bedding material (3 x 1 x 4 mm). The environment was temperature (20 ± 2°C) and humidity (55 ± 15%) controlled and consisted of a light-dark cycle of 13:11 h (lights on at 06.00 h and off at 19.00 h). Food (Altromin®) and water were available ad libitum. The rats were allowed to habituate to the housing facilities for at least one week prior to being randomly assigned to behavioural experiments. All experiments were performed according to the Ethical Guidelines of the International Association for the Study of Pain (Zimmermann, 1983) and the Danish Committee for Experiments on Animals.
All drug testing in CCI rats was performed blinded by the observer. A 2-3 day drug washout period was allowed, and the studies were conducted between 4-5 weeks after surgery. CCI rats used in this study had also been previously enrolled in similar experiments assessing the efficacy of other compound(s). Only those animals with distinct neuropathic behavior (von Frey response <4 g, pin prick response >10 s) were included in the study. Table C: Experimental groups
Chronic constriction injury procedure. A chronic constriction injury (CCI) was performed in rats (body weight 180-220 g at the time of surgery) under isoflurane anaesthesia as described previously (Bennett and Xie, 1988). The sciatic nerve was exposed at the mid-thigh level proximal to the sciatic trifurcation. Four chromic gut ligatures (4/0) (Ethicon, New Brunswick, NJ) were tied loosely around the nerve, 1-2 mm apart, such that the vascular supply was not compromised. The overlying muscle was closed in layers with 4/0 synthetic absorbable surgical suture. The skin was closed and sutured with 4/0 silk thread.
Behavioural testing of nerve-injured rats. Nerve-injured rats were routinely tested for the presence of pain-like behaviours for up to 5 weeks after surgery, according to previously described methods (Munro et al., 2008). For testing of mechanical hypersensitivity individual rats were removed from their home cage and allowed to habituate for 15 min in a 15 x 20 cm white Plexiglas testing cage, placed upon an elevated metal grid allowing access to the plantar surface of the injured hindpaw. The presence of mechanical allodynia was assessed using a series of calibrated von Frey hairs (lower limit=0.065 and upper limit=19.3 g, Stoelting Co, Wood Dale IL), which were applied to the plantar surface of the hindpaw with increasing force until an individual filament used just started to bend. The filament was applied for a period of 1-2 s and was repeated 5 times at 1-2 s intervals. The filament that induced a reflex paw withdrawal in 3 out of 5 applications was considered to represent the threshold level for a response to occur. The presence of mechanical hyperalgesia was determined by pressing the plantar surface of the hindpaw with the point of a safety pin, at an intensity sufficient to produce a reflex withdrawal response in normal unoperated animals, but at an intensity which was insufficient to penetrate the skin. A cut-off time of 15 s was applied to long withdrawals often seen for the nerve-injured paw.
Changes in hindpaw weight bearing were assessed using an incapacitance tester (Linton Instrumentation, U.K.), which incorporates a dual channel scale used to separately assess the weight distributed to each hindpaw of the rat. Normally, uninjured rats distribute their weight evenly between the two hindpaws (50:50). However, after tissue injury the rat preferentially favours the non-injured hindpaw, such that the weight bearing difference can be used as an index of spontaneous nociception. […]

COc1cc2ccc(O[C@@H]3C[C@H]4CC[C@@H](C3)N4)cc2oc1=O [IP2015, exo-7-[(8-azabicyclo[3.2.1]octan-3-yl)oxy]-3-methoxy-chromen-2-one]
paw withdrawal duration (pin prick) (3 mg/kg s.c.): about 12.3 s | weight bearing difference (3 mg/kg s.c.): about 17% | paw withdrawal threshold (von Frey stimulation) (3 mg/kg s.c.): about 5.7 g | paw withdrawal duration (pin prick) (10 mg/kg s.c.): about 11.1 s | weight bearing difference (10 mg/kg s.c.): about 11% | paw withdrawal threshold (von Frey stimulation) (10 mg/kg s.c.): about 3.6 g | CCI induced weight bearing deficits (overall effect) (3, 10 mg/kg s.c., CCI rats): robust dose-dependent reversal | hindpaw withdrawal threshold to mechanical von Frey stimulation (overall effect) (3, 10 mg/kg s.c., CCI rats): small but significant increase | behavioural observation in CCI rats (10 and especially 30 mg/kg s.c.): extremely alert, and possibly displayed signs of anxiogenic behaviour
